The structures appear in SMILES notation.

This experiment addresses T1, ACC deaminase (1-aminocyclopropane-1-carboxylic acid deaminase) (Pseudomonas sp. ACP, UniProt Q00740).
T1 sequence (Q00740 1-338): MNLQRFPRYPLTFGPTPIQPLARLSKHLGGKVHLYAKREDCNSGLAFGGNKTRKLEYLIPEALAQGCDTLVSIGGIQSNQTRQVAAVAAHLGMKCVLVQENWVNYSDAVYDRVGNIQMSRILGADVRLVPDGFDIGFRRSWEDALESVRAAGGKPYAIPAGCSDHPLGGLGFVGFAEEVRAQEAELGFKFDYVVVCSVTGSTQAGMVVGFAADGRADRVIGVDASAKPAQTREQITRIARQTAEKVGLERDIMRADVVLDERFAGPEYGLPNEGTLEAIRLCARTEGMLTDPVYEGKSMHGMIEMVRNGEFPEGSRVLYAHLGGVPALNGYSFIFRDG
The class given is biochemical.

A word on the Ki: it is a dissociation constant, usually derived from enzyme kinetics or from competition with a known ligand. Turning to `NC1(C(=O)O)CC1(F)F` (racemic) [compound 3, 1-Amino-2,2-difluorocyclopropane-1-carboxylic acid], the affinity, expressed as Ki, was 120 ± 40 nM.

The values are drawn from publication PMC5024786 (Organic letters, 2015).
